Laboratory results: PMC6114103, “17-DMAG inhibits the multiplication of several Babesia species and Theileria equi on in vitro cultures, and Babesia microti in mice” (International Journal for Parasitology: Drugs and Drug …, 2018)

Legend:
NIH/3T3 cells = experiment: cytotoxicity (drug-exposure viability) assay, CCK-8; format: cell-based, mouse; settings: for IC50: Mus musculus, NIH3T3, NIH/3T3, 24 h exposure, CCK-8, read-out: IC50 on cell line NIH/3T3
Protocol: (§1) Each medium was supplemented with 10% fetal bovine serum, 0.5% penicillin/streptomycin (Gibco, Life Technologies, USA), and an additional 1% glutamine. The medium was changed every 3–4 days and incubated until approximately 80% confluent. The cells were free from mycoplasma contamination after being checked by staining with DAPI (Sigma-Aldrich, USA). The detachment of cells from the culture flask was done using TrypLE™ Express (Gibco, Life Technologies, USA) after washing two times with Dulbecco's phosphate-buffered saline (DPBS). Subsequently, the counting of viable cells was carried out using a Neubauer improved C-Chip (NanoEntek Inc., Korea) after staining with 0.4% trypan blue solution. The drug-exposure viability assay was performed in accordance with the recommendation of the Cell Counting Kit-8 (CCK-8, Dojindo, Japan). Briefly, the assay was carried out using a 96-well plate at 37 °C in a humidified incubator with 5% CO2. One hundred microliters of cells at a density of 5 × 10^4 cells/ml was seeded per well and allowed to attach to the plate for 24 h. […] The exposure of drugs was carried out for 24 h, followed by the addition of 10 μl of CCK-8. The plate was further incubated for 3 h, and the absorbance was measured at 450 nm using a microplate reader.

[1] = system: B. divergens (Germany strain); experiment: in vitro multiplication inhibition assay (SYBR Green I fluorescence, 96 h), single drugs and two-drug combinations; format: cell-based, Babesia divergens; settings: for IC50: Babesia divergens, B. divergens, 96 h, triplicate, mean ± SD, read-out: IC50 on in vitro culture of parasites; for Selectivity index MDBK: ratio IC50 MDBK to IC50 B. divergens; for Selectivity index NIH/3T3: ratio IC50 NIH/3T3 to IC50 B. divergens
Protocol: (§2) Babesia parasite cultures were maintained using a microaerophilic stationary-phase culture system ([Levy and Ristic, 1980]; [Avarzed et al., 1997]; [Igarashi et al., 1998]). Briefly, bovine Babesia parasites were grown in bovine red blood cells (RBC) in the specific complete medium for each species. The medium for B. bovis (Texas strain) contained GIT medium supplemented with 10% bovine serum, while the medium for B. bigemina (Argentina strain) and B. divergens (Germany strain) was Medium 199 and RPMI 1640 medium, respectively, supplemented with 40% bovine serum ([Rizk et al., 2016]). B. caballi (USDA strain) was grown using equine RBC in GIT medium supplemented with 10% equine serum. T. equi (USDA strain) was grown in equine RBC in M199 medium supplemented with 40% equine serum and hypoxanthine (MP Biomedicals, USA) at a final concentration of 13.6 μg/ml. All of the media included 60 U/ml penicillin G, 60 μg/ml streptomycin, and 0.15 μg/ml amphotericin B (Sigma-Aldrich, USA). The cultures were incubated at 37 °C in a humidified chamber with an atmosphere of 5% CO2, 5% O2, and 90% N2.
(§3) The assays were conducted in accordance with the protocol described previously with modification ([Guswanto et al., 2014]). Briefly, the cultures of B. bovis, B. bigemina, B. divergens, B. caballi, and T. equi with a parasitemia of 8%, 3%, 10%, 4%, and 9%, respectively, were harvested and adjusted to 1% parasitemia with fresh RBC before the inhibition assay. The 60 inner wells of a 96-well plate were used in the assay, while the peripheral wells were filled with sterile distillate water to reduce evaporation during incubation. To each well in triplicate, 2.5 μl of infected RBC (5 μl for B. divergens, B. caballi, and T. equi) was added and mixed with a culture medium containing the drug to a total volume of 100 μl. The stock solution of 17-DMAG, DA, and AV was dissolved in a culture medium at various concentrations using two-fold dilution. A culture medium containing DMSO at a final concentration of 0.2% was added to the well with infected RBC as a positive control and to the well with uninfected RBC as a negative control. Furthermore, a drug combination assay was conducted in parallel with the single drug assay at the constant ratio in accordance with the Chou–Talalay method ([Chou, 2006]). In the same plate with a single drug inhibition assay, a two-drug combination (DA+17-DMAG, DA + AV, and 17-DMAG + AV) at concentrations of 0.25 x IC50, 0.5 x IC50, IC50, 2 x IC50, and 4 x IC50 was added to the well containing infected RBC in triplicate. The plate was incubated in a humidified incubator with 5% CO2, 5% O2, and 90% N2. After 96 h, 100 μl of a lysis buffer containing SYBR Green I was added to each well. The plate was wrapped with aluminum foil to avoid direct light exposure and incubated at room temperature. After incubation for 6 h, fluorescence values were measured using a fluorescence spectrophotometer (Fluoroskan Ascent, Thermo Fisher Scientific, USA) with the excitation and emission wavelength at 485 nm and 518 nm, respectively. The fluorescence data were subtracted from the negative control and used to calculate the IC50.
(§4) The IC50 of 17-DMAG, DA, and AV was calculated from the percentage of inhibition on the in vitro multiplication of all tested species using non-linear regression (curve fit), available in GraphPad Prism (GraphPad Software Inc., USA). Combination index (CI) values for the drug combination were calculated using CompuSyn software ([Chou, 2006]). Since the chemotherapy effect is preferable at the highest inhibition, the degree of synergism was determined as the weighted average of CI values using a formula ((1 x IC50) + (2 x IC75) + (3 x IC90) + (4 x IC95))/10 ([Chou, 2006]). The differences among groups regarding the parasitemia, hematology profiles, and body weight in the B. microti–infected mouse model were analyzed using Student's t-test, available in GraphPad Prism software.

B. caballi (USDA strain) = experiment: as above; format: cell-based, Babesia caballi; settings: for IC50: Babesia caballi, B. caballi, 96 h, triplicate, mean ± SD, read-out: IC50 on in vitro culture of parasites; for Selectivity index MDBK: ratio IC50 MDBK to IC50 B. caballi; for Selectivity index NIH/3T3: ratio IC50 NIH/3T3 to IC50 B. caballi
Protocol: as §2, §3, §4

T. equi (USDA strain) = experiment: as above; format: cell-based, Theileria equi; settings: for IC50: Theileria equi, T. equi, 96 h, triplicate, mean ± SD, read-out: IC50 on in vitro culture of parasites; for Selectivity index MDBK: ratio IC50 MDBK to IC50 T. equi; for Selectivity index NIH/3T3: ratio IC50 NIH/3T3 to IC50 T. equi
Protocol: as §2, §3, §4

B. bovis (Texas strain) = experiment: as above; format: cell-based, Babesia bovis; settings: for IC50: Babesia bovis, in Bos taurus, B. bovis, 96 h, triplicate, mean ± SD, read-out: IC50 on in vitro culture of parasites; for Selectivity index MDBK: ratio IC50 MDBK to IC50 B. bovis; for Selectivity index NIH/3T3: ratio IC50 NIH/3T3 to IC50 B. bovis
Protocol: as §2, §3, §4

MDBK cells = experiment: cytotoxicity (drug-exposure viability) assay, CCK-8; format: cell-based, bovine; settings: for IC50: Bos taurus, MDBK, 24 h exposure, CCK-8, read-out: IC50 on cell line MDBK
Protocol: as §1

[2] = at a concentration of 40 μM, separate assay

Row | SMILES | IC50 (NIH/3T3 cells) | IC50 [1] | Selectivity index MDBK [1] | Selectivity index NIH/3T3 [1] | IC50 (B. caballi (USDA strain)) | Selectivity index MDBK (B. caballi (USDA strain)) | Selectivity index NIH/3T3 (B. caballi (USDA strain)) | IC50 (T. equi (USDA strain)) | Selectivity index MDBK (T. equi (USDA strain)) | Selectivity index NIH/3T3 (T. equi (USDA strain)) | IC50 (B. bovis (Texas strain)) | Selectivity index MDBK (B. bovis (Texas strain)) | Selectivity index NIH/3T3 (B. bovis (Texas strain)) | IC50 (MDBK cells) | inhibition on NIH/3T3 cell viability (NIH/3T3 cells; [2]) | inhibition on MDBK cell viability (MDBK cells; [2])
1 | CO[C@H]1/C=C\C=C(/C)C(=O)NC2=CC(=O)C(NCCN(C)C)=C(C[C@@H](C)C[C@H](OC)[C@H](O)[C@@H](C)/C=C(\C)[C@@H]1OC(N)=O)C2=O [17-DMAG, 17-dimethylaminoethylamino-17-demethoxygeldanamycin] | 15500 ± 4000 nM | 184 ± 3.2 nM | 48 | 84 | 88.5 ± 9.6 nM | 99 | 175 | 308 ± 7.2 nM | 29 | 50 | 77.6 ± 2.9 nM | 113 | 200 | 8800 ± 2000 nM | – | –
2 | O=C1C(O)=C([C@H]2CC[C@H](c3ccc(Cl)cc3)CC2)C(=O)c2ccccc21 [AV, atovaquone] | > 40000 nM | 13.4 ± 1.4 nM | >2985 | >2985 | 102 ± 14.1 nM | >393 | >393 | 95 ± 65 nM | >421 | >421 | 39.7 ± 2.4 nM | >1008 | >1008 | > 40000 nM | did not show any inhibition | did not show any inhibition
